Values of other authors, collected in US20210017202A1, “SPHINGOMYELIN-DERIVED LIPID AND METHOD FOR PRODUCING SAME” (NOF CORPORATION, priority 2018, published 2021).

Conditions: liposome with cholesterol

amount hydrolyzed (aqueous solution at pH2, 4 hr)	amount of hydrolysate (aqueous solution at pH2, after 20 hr)	Compound
about 40%		CCCCCCCCCCCCCCCCCC(=O)OC[C@H](COP(=O)([O-])OCC[N+](C)(C)C)OC(=O)CCCCCCCCCCCCCCCCC [distearoylglycerophosphocholine]
	less than 5%	sphingomyelin
